Values of other authors, collected in patent publication US5767071A, “Sevenmer cyclic peptide inhibitors of diseases involving αv β3” (IXSYS Incorporated, priority 1995, dated 1998).

What was measured:
[1] = test system: chicken embryo tumor model
integrin αv β3 = integrin αv β3 (Homo sapiens, UniProt P05106+P06756); conditions: binding and cell adhesion assays
Sequence of integrin αv β3 (P06756 31-889 limits assumed): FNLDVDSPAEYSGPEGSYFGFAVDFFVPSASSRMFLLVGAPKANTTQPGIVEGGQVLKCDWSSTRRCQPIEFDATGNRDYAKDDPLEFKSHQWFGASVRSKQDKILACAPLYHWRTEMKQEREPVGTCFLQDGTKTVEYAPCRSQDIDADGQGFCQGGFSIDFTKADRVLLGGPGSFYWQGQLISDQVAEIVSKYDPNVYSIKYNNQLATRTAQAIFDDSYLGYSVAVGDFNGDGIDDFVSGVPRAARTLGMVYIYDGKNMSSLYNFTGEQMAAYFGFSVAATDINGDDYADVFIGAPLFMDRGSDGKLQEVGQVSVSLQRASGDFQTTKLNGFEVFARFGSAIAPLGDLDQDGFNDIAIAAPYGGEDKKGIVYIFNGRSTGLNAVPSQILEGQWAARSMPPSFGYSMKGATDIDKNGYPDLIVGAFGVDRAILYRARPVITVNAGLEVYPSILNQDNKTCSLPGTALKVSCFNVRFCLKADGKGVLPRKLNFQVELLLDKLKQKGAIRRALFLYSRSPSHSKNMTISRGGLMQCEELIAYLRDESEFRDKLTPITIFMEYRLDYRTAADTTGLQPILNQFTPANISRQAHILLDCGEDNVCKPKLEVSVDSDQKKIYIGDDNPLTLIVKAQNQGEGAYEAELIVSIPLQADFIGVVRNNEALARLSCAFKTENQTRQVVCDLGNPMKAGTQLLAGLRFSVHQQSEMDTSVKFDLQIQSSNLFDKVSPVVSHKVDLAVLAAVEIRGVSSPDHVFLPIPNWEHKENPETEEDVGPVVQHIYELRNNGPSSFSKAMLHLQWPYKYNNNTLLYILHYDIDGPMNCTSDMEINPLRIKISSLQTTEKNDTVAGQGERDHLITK
Sequence of integrin αv β3 (P06756 891-1048 limits assumed): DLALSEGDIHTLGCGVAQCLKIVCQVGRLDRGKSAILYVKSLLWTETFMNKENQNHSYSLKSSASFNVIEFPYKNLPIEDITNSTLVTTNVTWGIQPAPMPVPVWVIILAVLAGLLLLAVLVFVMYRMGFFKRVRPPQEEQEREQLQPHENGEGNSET
Sequence of integrin αv β3 (P05106 27-788): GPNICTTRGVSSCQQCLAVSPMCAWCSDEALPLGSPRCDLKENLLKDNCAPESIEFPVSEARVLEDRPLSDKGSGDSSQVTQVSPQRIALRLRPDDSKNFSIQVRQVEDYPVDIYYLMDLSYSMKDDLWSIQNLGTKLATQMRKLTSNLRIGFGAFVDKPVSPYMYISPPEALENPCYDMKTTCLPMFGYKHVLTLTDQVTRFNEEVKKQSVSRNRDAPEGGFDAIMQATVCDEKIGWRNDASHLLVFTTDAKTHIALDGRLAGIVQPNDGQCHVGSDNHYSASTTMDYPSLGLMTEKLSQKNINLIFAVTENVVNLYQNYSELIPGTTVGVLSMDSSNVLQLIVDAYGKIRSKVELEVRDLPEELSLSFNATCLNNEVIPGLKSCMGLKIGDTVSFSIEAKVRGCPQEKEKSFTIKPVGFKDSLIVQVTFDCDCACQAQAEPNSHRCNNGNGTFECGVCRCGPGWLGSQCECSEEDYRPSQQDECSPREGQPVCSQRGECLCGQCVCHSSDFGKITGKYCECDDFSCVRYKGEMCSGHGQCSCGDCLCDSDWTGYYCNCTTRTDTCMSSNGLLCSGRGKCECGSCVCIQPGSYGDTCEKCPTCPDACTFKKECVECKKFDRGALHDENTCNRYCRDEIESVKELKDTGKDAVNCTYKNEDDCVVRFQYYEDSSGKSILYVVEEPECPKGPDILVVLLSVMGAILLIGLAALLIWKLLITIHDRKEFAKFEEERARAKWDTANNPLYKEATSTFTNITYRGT

CC(C)[C@@H]1NC(=O)[C@@H](Cc2ccccc2)NC(=O)[C@H](CC(=O)O)NC(=O)CNC(=O)[C@H](CCCN=C(N)N)NC1=O [cyclo-RGDfv]
inhibition of angiogenesis / neovascularization [1]: inhibit the neovascularization process

ACPSRLDSPCG [RLD peptide from a literature phage library (Koivunen et al.)]
activity compared with an RGD peptide (integrin αv β3): 100-1000 fold lower
selectivity for the integrin αv β3 (integrin αv β3): only partially selective

Gly-Arg-Gly-Asp-Ser (GRGDS)
inhibition of angiogenesis in vitro (angiogenesis): inhibits angiogenesis in vitro
